Laboratory results: US20210169892A1, “MODULATORS OF THE INTEGRATED STRESS PATHWAY” (Calico Life Sciences LLC, priority 2017, published 2021)

What follows are compounds tested on HEK293T cells carrying the ATF4 luciferase reporter (assay: ATF4-Luc assay (in vitro model of vanishing white matter disease)). Conditions: Homo sapiens, HEK-293T; HEK293T cells with ATF4 luciferase reporter, 1 μg/mL tunicamycin, 7 hours, One Glo luminescence.
Type: cell-based
Method in brief: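 Stable HEK293T line with human ATF4 5′-UTR–firefly luciferase reporter treated with 1 μg/mL tunicamycin plus 200 nM compound for 7 h. Luminescence read; EC50 derived.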

SMILES | EC50
O=C(COc1ccc(Cl)c(F)c1)NC12CC(NC(=O)C3CN(C(=O)C4CC4(F)F)c4cc(Cl)ccc4O3)(C1)C2 (stereo not shown) [Compound 176, 6-chloro-N-{3-[2-(4-chloro-3-fluorophenoxy)acetamido]bicyclo[1.1.1]pentan-1-yl}-4-(2,2-difluorocyclopropane-1-carbonyl)-3,4-dihydro-2H-1,4-benzoxazine-2-carboxamide] | 250 to 500 nM
O=C(COc1ccc(Cl)c(F)c1)NC12CC(NC(=O)C3CN(C(=O)C4(C(F)(F)F)CC4)c4cc(Cl)ccc4O3)(C1)C2 (stereo not shown) [Compound 177, 6-chloro-N-{3-[2-(4-chloro-3-fluorophenoxy)acetamido]bicyclo[1.1.1]pentan-1-yl}-4-[1-(trifluoromethyl)cyclopropane-1-carbonyl]-3,4-dihydro-2H-1,4-benzoxazine-2-carboxamide] | < 10 nM
O=C(COc1ccc(Cl)c(F)c1)NC12CC(NC(=O)C3CN(C(=O)C(F)(F)C(F)(F)F)c4cc(Cl)ccc4O3)(C1)C2 (stereo not shown) [Compound 178, 6-chloro-N-{3-[2-(4-chloro-3-fluorophenoxy)acetamido]bicyclo[1.1.1]pentan-1-yl}-4-(2,2,3,3,3-pentafluoropropanoyl)-3,4-dihydro-2H-1,4-benzoxazine-2-carboxamide] | < 10 nM
CC1(C(=O)N2CC(C(=O)NC34CC(NC(=O)COc5ccc(Cl)c(F)c5)(C3)C4)Oc3ccc(Cl)cc32)CC1(F)F (stereo not shown) [Compound 179, 6-chloro-N-{3-[2-(4-chloro-3-fluorophenoxy)acetamido]bicyclo[1.1.1]pentan-1-yl}-4-(2,2-difluoro-1-methylcyclopropane-1-carbonyl)-3,4-dihydro-2H-1,4-benzoxazine-2-carboxamide] | 500 to 2000 nM
CS(=O)(=O)CCN1CC(C(=O)NC23CC(NC(=O)COc4ccc(Cl)c(F)c4)(C2)C3)Oc2ccc(Cl)cc21 (stereo not shown) [Compound 180, 6-chloro-N-{3-[2-(4-chloro-3-fluorophenoxy)acetamido]bicyclo[1.1.1]pentan-1-yl}-4-[2-(methanesulfonyl)ethyl]-3,4-dihydro-2H-1,4-benzoxazine-2-carboxamide] | 10 to 50 nM
COCCC(=O)N1CC(C(=O)NC23CC(NC(=O)COc4ccc(Cl)c(F)c4)(C2)C3)Oc2ccc(Cl)cc21 (stereo not shown) [Compound 181, 6-chloro-N-{3-[2-(4-chloro-3-fluorophenoxy)acetamido]bicyclo[1.1.1]pentan-1-yl}-4-(3-methoxypropanoyl)-3,4-dihydro-2H-1,4-benzoxazine-2-carboxamide] | 10 to 50 nM
O=C(COc1ccc(Cl)c(F)c1)NC12CC(NC(=O)C3CN(C(=O)CC(F)(F)F)c4cc(Cl)ccc4O3)(C1)C2 (stereo not shown) [Compound 182, 6-chloro-N-{3-[2-(4-chloro-3-fluorophenoxy)acetamido]bicyclo[1.1.1]pentan-1-yl}-4-(3,3,3-trifluoropropanoyl)-3,4-dihydro-2H-1,4-benzoxazine-2-carboxamide] | 50 to 250 nM
O=C(COc1ccc(Cl)c(F)c1)NC12CC(NC(=O)C3CN(S(=O)(=O)CC(F)(F)F)c4cc(Cl)ccc4O3)(C1)C2 (stereo not shown) [Compound 183, 6-chloro-N-{3-[2-(4-chloro-3-fluorophenoxy)acetamido]bicyclo[1.1.1]pentan-1-yl}-4-(2,2,2-trifluoroethanesulfonyl)-3,4-dihydro-2H-1,4-benzoxazine-2-carboxamide] | 10 to 50 nM
CC(C)(C)OC(=O)CN1CC(C(=O)NC23CCC(NC(=O)COc4ccc(Cl)c(F)c4)(CC2)[C@@H](O)C3)Oc2ccc(Cl)cc21 (stereo partly drawn) [Compound 185, tert-butyl [6-chloro-2-({(3S)-4-[2-(4-chloro-3-fluorophenoxy)acetamido]-3-hydroxybicyclo[2.2.2]octan-1-yl}carbamoyl)-2,3-dihydro-4H-1,4-benzoxazin-4-yl]acetate] | 50 to 250 nM
O=C(COc1ccc(Cl)c(F)c1)NC12CC(NC(=O)C3CC(=O)c4cc(Cl)ccc4O3)(C1)C2 (stereo not shown) [Compound 186, 6-chloro-N-{3-[2-(4-chloro-3-fluorophenoxy)acetamido]bicyclo[1.1.1]pentan-1-yl}-4-oxo-3,4-dihydro-2H-1-benzopyran-2-carboxamide] | < 10 nM
COC(C)(C)CN1CC(C(=O)NC23CC(NC(=O)COc4ccc(Cl)c(F)c4)(C2)C3)Oc2ccc(Cl)cc21 (stereo not shown) [Compound 187, 6-chloro-N-{3-[2-(4-chloro-3-fluorophenoxy)acetamido]bicyclo[1.1.1]pentan-1-yl}-4-(2-methoxy-2-methylpropyl)-3,4-dihydro-2H-1,4-benzoxazine-2-carboxamide] | 10 to 50 nM
O=C(COc1ccc(Cl)c(F)c1)NC12CC(NC(=O)C3CC(NCCO)c4cc(Cl)ccc4O3)(C1)C2 (stereo not shown) [Compound 188, 6-chloro-N-{3-[2-(4-chloro-3-fluorophenoxy)acetamido]bicyclo[1.1.1]pentan-1-yl}-4-[(2-hydroxyethyl)amino]-3,4-dihydro-2H-1-benzopyran-2-carboxamide] | 10 to 50 nM
COC(=O)CNC1CC(C(=O)NC23CC(NC(=O)COc4ccc(Cl)c(F)c4)(C2)C3)Oc2ccc(Cl)cc21 (stereo not shown) [Compound 189, methyl {[6-chloro-2-({3-[2-(4-chloro-3-fluorophenoxy)acetamido]bicyclo[1.1.1]pentan-1-yl}carbamoyl)-3,4-dihydro-2H-1-benzopyran-4-yl]amino}acetate] | 10 to 50 nM
O=C(COc1ccc(Cl)c(F)c1)NC12CCC(NC(=O)C3CC(O)c4cc(Cl)ccc4O3)(CC1)C[C@@H]2O (stereo partly drawn) [Compound 199, 6-chloro-N-{(3S)-4-[2-(4-chloro-3-fluorophenoxy)acetamido]-3-hydroxybicyclo[2.2.2]octan-1-yl}-4-hydroxy-3,4-dihydro-2H-1-benzopyran-2-carboxamide] | < 10 nM
O=C(COc1ccc(Cl)c(F)c1)NC12CCC(NC(=O)C3CCc4cc(F)ccc4O3)(CC1)[C@@H](O)C2 (stereo partly drawn) [Compound 200, N-{(2S)-4-[2-(4-chloro-3-fluorophenoxy)acetamido]-2-hydroxybicyclo[2.2.2]octan-1-yl}-6-fluoro-3,4-dihydro-2H-1-benzopyran-2-carboxamide] | < 10 nM
O=C(COc1ccc(Cl)c(F)c1)NC12CCC(NC(=O)[C@@H]3CCc4cc(F)ccc4O3)(CC1)[C@@H](O)C2 [Compound 201, (2S)—N-{(2S)-4-[2-(4-chloro-3-fluorophenoxy)acetamido]-2-hydroxybicyclo[2.2.2]octan-1-yl}-6-fluoro-3,4-dihydro-2H-1-benzopyran-2-carboxamide] | < 10 nM
O=C(COc1ccc(Cl)c(F)c1)NC12CCC(NC(=O)[C@H]3CCc4cc(F)ccc4O3)(CC1)[C@@H](O)C2 [Compound 202, (2R)—N-{(2S)-4-[2-(4-chloro-3-fluorophenoxy)acetamido]-2-hydroxybicyclo[2.2.2]octan-1-yl}-6-fluoro-3,4-dihydro-2H-1-benzopyran-2-carboxamide] | < 10 nM
O=C(COc1ccc(Cl)c(F)c1)NC12CCC(NC(=O)C3CCc4cc(Cl)ccc4O3)(CC1)[C@@H](O)C2 (stereo partly drawn) [Compound 203, 6-chloro-N-{(2S)-4-[2-(4-chloro-3-fluorophenoxy)acetamido]-2-hydroxybicyclo[2.2.2]octan-1-yl}-3,4-dihydro-2H-1-benzopyran-2-carboxamide] | < 10 nM
O=C(COc1ccc(Cl)c(F)c1)NC12CC(NC(=O)C3CCc4cc(Cl)ccc4O3)(C1)C2 (stereo not shown) [Compound 204, 6-chloro-N-{3-[2-(4-chloro-3-fluorophenoxy)acetamido]bicyclo[1.1.1]pentan-1-yl}-3,4-dihydro-2H-1-benzopyran-2-carboxamide] | < 10 nM
